Assay results from patent US10918683B2, “Methods to reduce fat accumulation and oxidative damage in liver using green mango extracts and compounds obtained therefrom” (TCI CO., LTD., priority 2018, dated 2021).

Tested on: HepG2 cells
Assay: Oil red O staining of fat accumulation in oleic acid-treated HepG2 cells
Assay type: cell-based, human
Conditions: 10 μg/mL compound (dissolved in DMSO)
Experimental: HepG2 cells were cultured at 37° C. under 5% carbon dioxide in DMEM supplemented with 10% FBS and 1% penicillin/streptomycin, hereinafter referred to as DMEM culture medium.
To prepare the oil red O staining solution, the dye, oil red O, was first dissolved in 100% isopropanol thoroughly to prepare a 30 mg/mL oil red O stock solution. To obtain a ready-to-use oil red O staining solution, the stock solution was diluted with double deionized water to a concentration of 18 mg/mL and filtered through a 0.22 μm filter immediately before use.
To obtain a DMEM containing oleic acid-BSA conjugate, 10 mg/mL BSA and 28 μg/mL oleic acid were added to a DMEM with 2% FBS and 1% penicillin/streptomycin. The resulting mixture was stirred for about 30 minutes to facilitate the conjugation between oleic acid and BSA and the formation of conjugates.
The neutral fat content of cells was determined by oil red O staining. Prior to staining, the cells after indicated treatment were washed with PBS and then fixed with 10% formaldehyde for 30 minutes. The fixed cells were washed once with PBS and rinsed with 50% isopropanol for 15 seconds. Thereafter, the cells were stained with the oil red O staining solution for 1 hour. […] Alternatively, the intracellular dye was dissolved with 100% isopropanol and quantified by spectrophotometry. […]

## O=C(OCC1OC(OC(=O)c2cc(O)c(O)c(O)c2)C(OC(=O)c2cc(O)c(O)c(O)c2)C(OC(=O)c2cc(O)c(O)c(O)c2)C1OC(=O)c1cc(O)c(O)c(O)c1)c1ccc(O)cc1 (centres unmarked) [formula (Ia)]
  reduction of fat accumulation in HepG2 cells compared with oleic acid alone: approximately 33%

## O=C(OCC1OC(OC(=O)c2cc(O)c(O)c(O)c2)C(OC(=O)c2cc(O)c(O)c(O)c2)C(OC(=O)c2cc(O)c(O)c(O)c2)C1OC(=O)c1cc(O)c(O)c(O)c1)c1cc(O)c(O)c(O)c1 (centres unmarked) [formula (Ib), 1,2,3,4,6-penta-O-galloyl-glucopyranoside]
  reduction of fat accumulation in HepG2 cells compared with oleic acid alone: ~44%
